For data set [1], the target named is recombinant three-repeat microtubule-binding domain (3R-MBD) of tau protein (Homo sapiens, UniProt P10636). The data set is described as follows: Determination of tau aggregation inhibitory activity (heparin-induced, thioflavin T fluorescence; electron microscope). It is filed as biochemical. The settings on record: for IC50: 3R-MBD tau 10 μM, heparin 10 μM, 37° C. for 16 hours, thioflavin T, read-out: IC50 (μM) Test example 1 (tau aggregation inhibitory activity); for tau aggregation inhibitory activity at 1 μM: compound at 1 μM. The protocol: Pharmacological Test Example 1: Determination of Tau Aggregation Inhibitory Activity
Chain of recombinant three-repeat microtubule-binding domain (3R-MBD) of tau protein (P10636 186-279 isoform P10636-2 limits assumed): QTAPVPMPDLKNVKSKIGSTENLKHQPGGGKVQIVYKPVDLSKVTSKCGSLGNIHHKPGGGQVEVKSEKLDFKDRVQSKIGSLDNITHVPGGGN
A recombinant three-repeat microtubule-binding domain (3R-MBD) of tau protein was expressed in E. coli and was purified and used for the experiment. The purified tau solution was diluted with a 50 mM Tris-HCl buffer (pH 7.6) to a final concentration of 10 μM. The test compounds were prepared using dimethylsulfoxide (DMSO) at 20-fold of their final concentrations and added to the plate so that the DMSO concentration would be 5%. Heparin was added to the plate so that the final concentration would be 10 μM and the plate was left to stand at 37° C. for 16 hours. Thioflavin T was added to the plate so that the concentration would be 10 μM and the fluorescence intensity was measured with a fluorescence plate reader (PerkinElmer, Inc.) (excitation wavelength: 440 nm; emission wavelength: 480 nm).
(§1) The final concentration of each compound at the time of measurement was set at 0.1, 0.3, 1, 3, and 10 μM. The sample to which only DMSO was added was used as a negative control and its fluorescence intensity was taken as 0% inhibitory activity.
The samples were placed on a grid and washed with distilled water. A 1 mM phosphotungstic acid aqueous solution was added to the samples. The samples were washed, dried overnight, and observed.

The next data set deals with T1, Aβ 1-42 (Homo sapiens, UniProt P05067).
T1 construct: Aβ 1-42 (Peptide Institute, Inc.) was dissolved in 0.3% ammonia water; purchased Peptide Institute, Inc
T1 sequence (P05067 672-713): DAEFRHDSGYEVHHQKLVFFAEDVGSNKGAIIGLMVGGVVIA
The data set is described as follows: Determination of Aβ aggregation inhibitory activity (thioflavin T fluorescence). Format: biochemical. The following applies: for IC50: Aβ 1-42, 37° C. for 24 hours, thioflavin T, read-out: IC50 (μM) Test example 3 (Aβ aggregation inhibitory activity). As to the method:
Pharmacological test example 3: Determination of Aβ aggregation inhibitory activity
Aβ 1-42 (Peptide Institute, Inc.) was dissolved in 0.3% ammonia water so that the concentration would be 0.5 mM and then diluted with PBS to 20 μM. The test compounds were prepared using DMSO at 100-fold of their final concentrations and adjusted so that the DMSO concentration would be 2%. The Aβ solution and each of the test compound solutions were mixed at an equivalent ratio and the mixtures were incubated at 37° C. for 24 hours. To each of the mixtures, an equal volume of a thioflavin T solution adjusted with a 100 mM Tris-glycine buffer (pH 8.5) to 6 μM was added. The fluorescence intensity was measured with a fluorescence plate reader (excitation wavelength: 440 nm; emission wavelength: 480 nm).
as §1

The target in data set [2] is T2, recombinant human β-secretase (Homo sapiens, UniProt P56817).
T2 construct: purchased Invitrogen
T2 sequence (P56817 46-501): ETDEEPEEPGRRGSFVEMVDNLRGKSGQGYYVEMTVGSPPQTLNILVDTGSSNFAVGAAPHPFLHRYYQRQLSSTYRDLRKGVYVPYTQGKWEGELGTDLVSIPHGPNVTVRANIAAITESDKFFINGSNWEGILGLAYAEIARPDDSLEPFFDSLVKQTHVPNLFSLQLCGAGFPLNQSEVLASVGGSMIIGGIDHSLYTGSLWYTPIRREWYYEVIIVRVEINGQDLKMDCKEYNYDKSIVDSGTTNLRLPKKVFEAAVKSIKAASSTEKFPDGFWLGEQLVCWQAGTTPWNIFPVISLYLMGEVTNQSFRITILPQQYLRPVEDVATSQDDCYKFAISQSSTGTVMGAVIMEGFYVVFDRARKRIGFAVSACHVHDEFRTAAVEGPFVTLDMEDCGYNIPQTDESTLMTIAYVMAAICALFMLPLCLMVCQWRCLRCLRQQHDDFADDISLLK
The data set is described as follows: Determination of β-secretase inhibitory activity (BACE-1 FRET assay Kit). Format: biochemical. The following applies: for IC50: recombinant human β-secretase, fluorescent substrate peptide, 1 hour, read-out: IC50 (μM) Test example 2 (β-secretase inhibitory activity); for inhibition at 1 µM: compound at 1 μM. The protocol: Pharmacological Test Example 2: Determination of β-Secretase Inhibitory Activity
The β-secretase inhibitory activity was measured with BACE-1 FRET assay Kit (Invitrogen). The test compounds were prepared using DMSO at 30-fold of their final concentrations and dissolved so that the DMSO concentration would be 10%. To each of the solutions, an equal volume of a recombinant human β-secretase (1 U/mL) dissolved in the assay buffer and an equal volume of fluorescent substrate peptide (2.5 nM) were added and the solutions were left to stand for 1 hour. The fluorescence intensity was measured with a fluorescence plate reader (excitation wavelength: 545 nm; emission wavelength: 590 nm).
The final concentration of each compound at the time of measurement was set at 0.1, 0.3, 1, 3, and 10 μM, at 0.3, 1, 3, 10, and 30 μM, or at 1, 3, 10, 30, and 100 μM.

What is called IC50 is the concentration that inhibits the measured activity by half. In general, melting point refers to the temperature, or range, at which the solid turns liquid. Regarding `COc1cc(OCc2ccccn2)ccc1/C=C/c1cc(/C=C/c2ccc3[nH]cnc3c2)[nH]n1` [Example 31, 3-[(1E)-2-(1H-benzimidazol-5-yl)ethenyl]-5-[(1E)-2-[2-methoxy-4-(2-pyridylmethoxy)phenyl]ethenyl]-1H-pyrazole], the melting point lay in the range of 135 to 142 °C. Besides, the IC50 in data set [1] stood at 1.57 µM. Also, the half-maximal inhibitory concentration (IC50) on Aβ 1-42 is 6.88 µM. Further, the IC50 in data set [2] amounted to 0.69 µM.
Broadly, the inhibition is the relative decrease from the control value, in per cent. `C(=C\c1cc(/C=C/c2ccc3cc[nH]c3c2)[nH]n1)/c1ccc2cc[nH]c2c1` [Example 112, 3,5-bis[(1E)-2-(1H-indol-6-yl)ethenyl]-1H-pyrazole] gave a melting point of 289 to 291 °C. Besides, in data set [1], the “tau aggregation inhibitory activity at 1 μM” value is listed as 24%. Besides, the IC50 at Aβ 1-42 was found to be 2.8 µM. The compound also showed an inhibition at 3 µM against Aβ 1-42 (compound at 3 μM) of 17%. The inhibition at 1 µM in data set [2] came to 30%.
On to `COc1cc(OCCN2CCOCC2)ccc1/C=C/c1cc(/C=C/c2ccc3cc[nH]c3c2)[nH]n1` [Example 27, 3-[(1E)-2-(1H-indol-6-yl)ethenyl]-5-[(1E)-2-[2-methoxy-4-(2-morpholinoethoxy)phenyl]ethenyl]-1H-pyrazole], for which the melting point was 113 to 122 °C. In addition, the IC50 in data set [1] turned out to be 1.28 µM. On Aβ 1-42, the concentration for half-maximal inhibition (IC50) was found to be 7.53 µM. Moreover, in data set [2], the 50% inhibitory concentration (IC50) was 1.04 µM.
Compound `COc1cc(OCc2ccccn2)ccc1/C=C/c1cc(/C=C/c2ccccc2)[nH]n1` [Example 109, 3-[(1E)-2-[2-methoxy-4-(2-pyridylmethoxy)phenyl]ethenyl]-5-[(1E)-2-phenylethenyl]-1H-pyrazole] displayed a melting point of 143 to 146 °C. Also, the “tau aggregation inhibitory activity at 1 μM” value in data set [1] is on record as 0%. The inhibition at 1 µM in data set [2] stood at 12%.
Turning to `COc1cc(OCc2ccccn2)ccc1/C=C/c1cc(/C=C/c2ccc(OCc3ccccn3)cc2OC)[nH]n1` [Example 110, 3,5-bis[(1E)-2-[2-methoxy-4-(2-pyridylmethoxy)phenyl]ethenyl]-1H-pyrazole], the melting point lay in the range of 195 to 197 °C. The “tau aggregation inhibitory activity at 1 μM” value in data set [1] stood at 0%. Also, the IC50 at Aβ 1-42 came out at 1.9 µM. In addition, the inhibition at 1 µM in data set [2] amounted to 12%.
`COc1ccc([N+](=O)[O-])c(/C=C/c2cc(/C=C/c3ccc4cc[nH]c4c3)[nH]n2)c1` [Example 58, 3-[(1E)-2-(1H-indol-6-yl)ethenyl]-5-[(1E)-2-(5-methoxy-2-nitrophenyl)ethenyl]-1H-pyrazole] came in with a melting point of 104 to 109 °C. Besides, the IC50 in data set [1] was found to be 3.84 µM. Besides, the IC50 on Aβ 1-42 worked out at 2.17 µM. Besides, the concentration for half-maximal inhibition (IC50) in data set [2] worked out at 1.11 µM.
In turn, `CN1CCN(c2ccc(/C=C/c3cc(/C=C/c4ccc5cc[nH]c5c4)[nH]n3)cc2)CC1` [Example 102, 5-[(1E)-2-(1H-indol-6-yl)ethenyl]-3-[(1E)-2-[4-(4-methylpiperazin-1-yl)phenyl]ethenyl]-1H-pyrazole] yielded a melting point of 192 to 198 °C. Moreover, in data set [1], the half-inhibitory concentration (IC50) came out at 1.46 µM. In addition, the IC50 on Aβ 1-42 worked out at 4.33 µM. For the same compound, the 50% inhibitory concentration (IC50) in data set [2] is 1.06 µM.
As for `Oc1cc(OCc2ccccn2)ccc1/C=C/c1cc(/C=C/c2ccc3cc[nH]c3c2)[nH]n1` [Example 3, 3-[(1E)-2-(1H-indol-6-yl)ethenyl]-5-[(1E)-2-[2-hydroxy-4-(2-pyridylmethoxy)phenyl]ethenyl]-1H-pyrazole], the melting point was 202.5 to 203.5 °C. Further, the IC50 on Aβ 1-42 turned out to be 1.6 µM. Further, the IC50 in data set [2] is 2.9 µM.
`COc1cc(OCC2CCCO2)ccc1/C=C/c1cc(/C=C/c2ccc3cc[nH]c3c2)[nH]n1` (centres unmarked) [Example 1, 3-[(1E)-2-(1H-indol-6-yl)ethenyl]-5-[(1E)-2-[2-methoxy-4-(2-tetrahydrofuranylmethoxy)phenyl]ethenyl]-1H-pyrazole]: the melting point lay in the range of 218 to 220 °C. Further, in data set [1], the half-inhibitory concentration (IC50) came out at 1.49 µM. For the same compound, on Aβ 1-42, the IC50 came to 3 µM. The half-maximal inhibitory concentration (IC50) in data set [2] worked out at 2.85 µM.
On to `COc1cc(OCc2ccccn2)ccc1/C=C/c1cc(/C=C/c2ccc(O)c(N)c2)[nH]n1` [Example 111, 3-[(1E)-2-[2-methoxy-4-(2-pyridylmethoxy)phenyl]ethenyl]-5-[(1E)-2-(3-amino-4-hydroxy-phenyl)ethenyl]-1H-pyrazole], for which the melting point is 123 to 126 °C. In data set [1], the half-inhibitory concentration (IC50) was 1.46 µM. In addition, the concentration for half-maximal inhibition (IC50) at Aβ 1-42 was found to be 5.05 µM. The 50% inhibitory concentration (IC50) in data set [2] was found to be 2.89 µM.
`COc1cc(OCc2ccccn2)ccc1/C=C/c1cc(/C=C/c2cc3ccccc3[nH]2)[nH]n1` [Example 36, 3-[(1E)-2-(1H-indol-2-yl)ethenyl]-5-[(1E)-2-[2-methoxy-4-(2-pyridylmethoxy)phenyl]ethenyl]-1H-pyrazole]: the melting point fell in the range of 150.8 to 151.6 °C. For the same compound, the IC50 on Aβ 1-42 amounted to 2.9 µM.
For `CCN(CC)c1ccc(/C=C/c2cc(/C=C/c3ccc4cc[nH]c4c3)[nH]n2)c(OCc2ccccc2)c1` [Example 37, 3-[(1E)-2-(2-benzyloxy-4-diethylaminophenyl)ethenyl]-5-[(1E)-2-(1H-indol-6-yl)ethenyl]-1H-pyrazole], the melting point was 78.1 to 80 °C. In addition, the half-inhibitory concentration (IC50) on Aβ 1-42 stood at 0.4 µM.
Compound `CCN(CC)c1ccc(/C=C/c2cc(/C=C/c3ccc4cc[nH]c4c3)[nH]n2)c(OCCN2CCOCC2)c1` [Example 98, 3-[(1E)-2-[4-diethylamino-2-(2-morpholinoethoxy)phenyl]ethenyl]-5-[(1E)-2-(1H-indol-6-yl)ethenyl]-1H-pyrazole] displayed a melting point of 96 to 99 °C. In addition, in data set [1], the IC50 came to 1.29 µM. Besides, on Aβ 1-42, the 50% inhibitory concentration (IC50) turned out to be 3.27 µM. For the same compound, in data set [2], the IC50 came to 1.25 µM.
`COc1cc(OCc2ccccn2)ccc1/C=C/c1cc(/C=C/c2ccc3ccn(C)c3c2)[nH]n1` [Example 35, 3-[(1E)-2-[2-methoxy-4-(2-pyridylmethoxy)phenyl]ethenyl]-5-[(1E)-2-(1-methyl-1H-indol-6-yl)ethenyl]-1H-pyrazole] came in with a melting point of 172 to 174 °C. On Aβ 1-42, the half-inhibitory concentration (IC50) was found to be 0.91 µM.
`COc1cc(OCc2ccccn2)ccc1/C=C/c1cc(/C=C/c2ccc3[nH]ccc3c2)[nH]n1` [Example 40, 3-[(1E)-2-(1H-indol-5-yl)ethenyl]-5-[(1E)-2-[2-methoxy-4-(2-pyridylmethoxy)phenyl]ethenyl]-1H-pyrazole] gave a melting point of 98 to 104 °C.
The same measure, in the same setting: then `COc1cc(OCCn2cccc2)ccc1/C=C/c1cc(/C=C/c2ccc3cc[nH]c3c2)[nH]n1` [Example 81, 3-[(1E)-2-(1H-indol-6-yl)ethenyl]-5-[(1E)-2-[2-methoxy-4-[2-(pyrrol-1-yl)ethoxy]phenyl]ethenyl]-1H-pyrazole], with 102 to 110 °C; and `COc1cc(OC(C)C)ccc1/C=C/c1cc(/C=C/c2ccc3cc[nH]c3c2)[nH]n1` [Example 65, 3-[(1E)-2-(1H-indol-6-yl)ethenyl]-5-[(1E)-2-(4-isopropoxy-2-methoxyphenyl)ethenyl]-1H-pyrazole], with 107 to 113 °C.
Compound `COc1cc(OCc2cccnc2)ccc1/C=C/c1cc(/C=C/c2ccc3cc[nH]c3c2)[nH]n1` [Example 46, 3-[(1E)-2-(1H-indol-6-yl)ethenyl]-5-[(1E)-2-[2-methoxy-4-(3-pyridylmethoxy)phenyl]ethenyl]-1H-pyrazole] registered a melting point of 90 to 95 °C.

Source of the values: patent publication US9399635B2, “Pyrazole derivative” (GREEN TECH CO., LTD., priority 2011, dated 2016).
